Results reported in patent publication US20110009332A1, “Therapeutic Treatment Of Wounds” (SOUTHWEST RESEARCH INSTITUTE, priority 2009, published 2011).
Where a SMILES comes first, the peptide text is derived from it. The star is where a group is joined. Cbz = O=C(OCc1ccccc1)*; OtBu = CC(C)(C)O*

What was measured:
BMP-2 = BMP-2 gene expression (qPCR, normalized over 18S) in human dermal fibroblasts; assay type: cell-based
Experimental: An examination of gene expression of BMP-2 was conducted using a number of proteasome inhibitors including, proteasome inhibitor-1, curcumin, MG-132 and bortezomib. Human neonatal dermal fibroblasts (AllCells, Catalog No. HN006001) were maintained in Dulbecco's modified Eagle's medium (DMEM) supplemented with 10% fetal bovine serum. Early passage cells were plated at 2×10^4 cells/cm^2 and grown in humidified 5% CO2 at 37° C. for 24 hours. Spent media was replaced the following day with assay media including Proteasome inhibitor-1 was added in DMEM at 1 μM and 0.1 μM. Untreated cells were used as the control group. For the human osteogenesis PCR array, the experimental group was treated only at 1 μM.
Phenol-chloroform extraction was performed to isolate the total RNA for real time polymerase chain reaction array. More specifically, the total RNA was prepared using TRI REAGENT (Ambion, product number 9738), wherein the total RNA was obtained from the human neonatal dermal fibroblasts. Note that isolation was performed as per the instructions provided with the TRI REAGENT. The RNA was used for subsequent quantitative polymerase chain reaction (qPRC) gene expression of BMP-2 measured using hydrolysis probes (TAQMAN probes available from Applied Biosystems) as described further below.
Concentration and integrity of the obtained total RNA was assessed by absorbance in a spectrophotometer at 260 nm and 280 nm and by electrophoresis in 1% agarose with formaldehyde loading dye. For TAQMAN gene expression assays, cDNA was synthesized from 2 μg of total RNA using the High Capacity cDNA Reverse Transcription Kit (Applied Biosystems, product number 4368814), again following the protocol supplied with the kit. The resulting cDNA was diluted 1:10.
For TAQMAN gene expression, gene-specific fluorescent labeled TAQMAN primers for FAM-BMP2 (Applied Biosystems, product number Hs00154192.m1) and TAQMAN reference VIC-18S ribosomal RNA (Applied Biosystems, product number 4310893E) were used to target the gene of interest. A cocktail of universal master mix (Applied Biosystems, product number 4369016) was prepared individually for both set of primers which contained Taq Polymerase, dNTPs, and buffer. Template cDNA's were added separately to respective individual wells in triplicate samples. PCR was performed on StepOne Plus Real Time System instrument (Applied Biosystems). The amplification program consisted of 1 cycle of 95° C. with 10 minute hold (hot start) followed by 50 cycles of 95° C. with 15 second annealing hold and 1 minute 60° C. specified acquisition hold.
For human osteogenisis PCR array, total RNA was prepared using silica matrix purification using RNEASY MINI KIT (Qiagen, product number 74101) according to the manufacturer's recommendations. cDNA was synthesized from 1 μg of purified DNA-free RNA accordingly to RT^2First Strand Kit (SABiosciences, C-03). The resulting cDNA was diluted 1:30 and amplified. The procedure for the PCR array using real-time PCR is based on the RT^2 Profiler PCR array system instructions for Human Osteogenesis (SABiosciences, product number PAHS-026C). A cocktail reaction mix was setup as recommended by the PCR manufacturer (SABiosceiences, product number PA-012). PCR was performed using the same temperature parameters as used with the StepOne Plus Real Time System instrument. The Ct value of endogenous reference gene (i.e. 18s) was used to control for input RNA and then used to normalize target gene (i.e. BMP-2) tested from the same cDNA sample (Δ Ct), and then calibrated to an internal reference sample (ΔΔCt). Change in gene expression was determined by the expression 2̂-(ΔΔCt).
In addition, as alluded to above a similar methodology using 10 μmM and 100 μM of curcumin, 0.1 μM and 1 μM of bortezomib, and 0.1 μM and 1 μM of MG-132 proteasome inhibitors was performed.

[1] = test system: TGF-β1 protein expression in human dermal fibroblast cells; test: TGF-β1 protein expression in normal and PMA-challenged human dermal fibroblasts; assay type: cell-based; conditions: PS-1 0 nM to 10000 nM
Experimental: Cyto-toxicity analysis was performed to illustrate the inhibition of TGF-131 in human dermal fibroblasts. Both normal human dermal fibroblast cells (i.e., undamaged or non-wounded skin cells) and challenged (damaged) human dermal fibroblast cells were treated with concentrations of PS-1 ranging from 0 nM to 10000 nM and the effect of the various PS-1 concentrations on the normal and challenged cells was measured. It is noted that the challenged human dermal fibroblast cells were treated in vitro with 10 nM of phorbol 12-myristate 13-acetate (PMA) to simulate wounding. […] FIG. 11 illustrates TGF-131 protein expression upon addition of PS-1 in cells challenged by the addition of the 10 nM of PMA.

20S proteasomes = 20S proteasomes (Homo sapiens, UniProt P28074); test: Inhibition of 20S proteasome enzyme activity; assay type: biochemical; conditions: 0 nM to 10,000 nM, FIGS. 7-9
Experimental: The IC50 may be understood as the amount of a particular substance/molecule needed to inhibit a given biological process in vitro by 50% and may be an indicator of the potency of a compound. The activity of the proteasome may be quantified by measuring the amount of fluorescence produced by cleavage of a fluorogenic substrate, such as LLVY-AMC, which when released by proteasomal cleavage, may emit fluorescent light.
The enzyme activity of 20S proteasomes was measured upon increasing addition of the proteasome inhibitors PS-1, curcumin and genestein in concentrations ranging from 0 nM to 10,000 nM. In particular, FIG. 7 illustrates the inhibition of 20S proteasomes upon the addition of PS-1. […] FIG. 8 illustrates the inhibition of the 20S proteasomes upon the addition of curcumin. […] FIG. 9 illustrates the inhibition of the 20S proteasomes upon the addition of genestein.

[2] = 0.1 μM inhibitor, FIG. 24, non-treated approximately 1.50
[3] = 1 μM inhibitor, FIG. 24, non-treated approximately 1.50

| enzyme activity of 20S proteasomes with increasing inhibitor concentration (in words) (20S proteasomes) | Compound | BMP-2/18S mRNA levels (BMP-2; [2]) [a.u.] | BMP-2/18S mRNA levels (BMP-2; [3]) | other results |
| --- | --- | --- | --- | --- |
| – | CC(C)C[C@@H](C=O)NC(=O)[C@H](CC(C)C)NC(=O)[C@H](CC(C)C)NC(=O)OCc1ccccc1 [MG132] (Cbz-Leu-Leu-Leu-aldehyde) | 5.95 | approximately 9.51 a.u. | – |
| enzyme activity decreased | CC[C@H](C)[C@H](NC(=O)OCc1ccccc1)C(=O)N[C@@H](CCC(=O)OC(C)(C)C)C(=O)N[C@@H](C)C(=O)N[C@H](C=O)CC(C)C [PS-1, Z-Ile-Glu(OBu^t)-Ala-Leu-H] (Cbz-IE(OtBu)AL-aldehyde) | – | – | TGF-β1 protein expression (in words) ([1]; cells challenged with 10 nM PMA, FIG. 11): reduced TGF-β1 protein expression to similar levels seen in normal cells; TGF-β1 protein expression (in words) ([1]; normal human dermal fibroblast cells, FIG. 10): relatively little change in TGF-β1 protein expression; BMP-2/18S mRNA levels (BMP-2; 0.1 μm PS-1, FIG. 22, non-treated control approximately 1.38): 9.01 au; BMP-2/18S mRNA levels (BMP-2; 1.0 μm PS-1, FIG. 22, non-treated control approximately 1.38): 12.5 au |
| shown to decrease as well | COc1cc(/C=C/C(=O)CC(=O)/C=C/c2ccc(O)c(OC)c2)ccc1O [curcumin] | – | – | BMP-2/18S mRNA levels (BMP-2; 10 μM curcumin, FIG. 23, non-treated approximately 1.38): 2.87 a.u.; BMP-2/18S mRNA levels (BMP-2; 100 μM curcumin, FIG. 23, non-treated approximately 1.38): 0.903 a.u. |
| – | CC(C)C[C@H](NC(=O)[C@H](Cc1ccccc1)NC(=O)c1cnccn1)B(O)O [bortezomib] | 6.55 | 9.68 a.u. | – |
